Test results: the METLIN SMRT retention time set (Domingo-Almenara et al. 2019)

experiment: gradient 5% acetonitrile 3 min, to 50% in 2 min, to 85% in 15 min, held 3 min, 100 µL/min; details: column: Zorbax Extend-C18 2.1 x 50 mm; eluents: water / acetonitrile, 0.1% formic acid
Outline: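 Mixtures of ~100 pure standards were chromatographed on a Zorbax Extend-C18 column (2.1 × 50 mm, 1.8 μm) at 100 μL/min using water and acetonitrile, each with 0.1% formic acid. Detection used a quadrupole time-of-flight mass spectrometer in positive and negative ionization mode, and data collection spanned 3 months. Retention time was obtained from adduct peaks picked computationally and each checked manually.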

Structure (SMILES)	RP-LC retention time
CCSc1nc2ccc(NS(=O)(=O)c3ccc(F)cc3)cc2s1	1010 s
Cc1ccc(NC(=O)Cn2c(=O)n(-c3ccc(F)cc3)c(=O)c3c2cc(C)n3C)cc1Cl	946 s
CCc1noc(NC(C)=O)c1-c1ccc(OC)c(S(=O)(=O)Nc2cccc(OC)c2)c1	754 s
O=C(NCc1nc2ccccc2n1CCCCOc1ccccc1Cl)c1ccco1	660 s
Cc1cc(C)c(NC(=O)Cn2nc3c4cccc(C)c4ncn3c2=O)c(C)c1	679 s
COc1cccc(-c2cn3ccn(-c4ccc(OC)c(Cl)c4)c(=O)c3n2)c1	850 s
COC(=O)Nc1csc2c1NC(=O)CCCC2	716 s
CCOC(=O)C(NC(C)=O)(C(=O)OCC)C(C)c1c[nH]c2ccccc12 (stereo not given)	847 s
CN(C)CCNCc1ccc(-c2cc(Cl)cc(Cl)c2)o1	597 s
CCN(CC)S(=O)(=O)c1ccc2c(c1)CC(C(=O)N1CCCCCC1)N2C(C)=O (stereo not given)	839 s
COc1ccc(-c2noc(CN3C(=O)COc4cc(Cl)ccc43)n2)cc1	1060 s
O=C(CC(=O)c1ccccc1)Nc1ccc2c(c1)OCCO2	769 s
COc1ccc(NC(=O)N2[C@H]3CC[C@@H]2c2cnc(-c4ccc(F)cc4)nc2C3)cc1OC	875 s
O=C(Cc1cc(-c2ccc3c(c2)OCO3)on1)Nc1ccc(F)c(F)c1F	888 s
CCN(CC)c1nc(-c2ccccc2F)nc2ccccc12	700 s
COc1ccc(Cl)cc1S(=O)(=O)N1CCc2c(c(-c3nnc(-c4ccccc4)o3)nn2C)C1	958 s
COCC(=O)N1CC(c2nnc(C(C)C)o2)C2(CCOCC2)C1 (stereo not given)	577 s
COc1ccccc1C1=NN(C(=O)c2ccccc2C)C(c2ccco2)C1 (stereo not given)	976 s
Cc1ccc(-n2nc(C)c3c(C)cc(OCC(=O)Nc4ccc5c(c4)OCO5)nc32)cc1	1020 s
COc1ncc(C(=O)Nc2cc(C)ccc2F)c(C)n1	756 s
CN1CCC(OC(c2ccccc2)c2ccccc2)CC1	760 s
Cc1ccc(Cl)c(NS(=O)(=O)c2cc(-c3[nH]ncc3C(=O)N(C)C)oc2C)c1	717 s
Cc1cn(C)nc1C(=O)Nc1nnc(-c2ccco2)o1	622 s

Structure (SMILES)	RP-LC retention time
CS(=O)(=O)N1CCCC(C(=O)NCCC2=CCCCC2)CCNC(=O)CC1 (stereo not given)	690 s
Cc1nn(C(C)C(=O)Nc2ccc(Cl)cn2)c(=O)c2c(-n3cccc3)n(-c3ccccc3)nc12 (stereo not given)	1120 s
COCCC1(NS(C)(=O)=O)CCN(C(=O)C2(c3ccc(OC)cc3)CC2)CC1	710 s
CCn1nc(C)n2cc(S(=O)(=O)NCc3ccc(F)cc3)cc2c1=O	836 s
O=C1CN(c2ncnc3[nH]ncc23)CC(=O)N1CCc1ccccc1	662 s
COc1ccccc1OCCC1CCN(S(=O)(=O)Cc2ccccc2F)C1 (stereo not given)	1030 s
Cc1cccc(-n2c(=O)c3c(cc(C)n3C)n(CC(=O)Nc3ccc(C)cc3Cl)c2=O)c1	942 s
CCOc1ccc(C2Cn3nnc(-c4nc(-c5ccccc5OCC)no4)c3CO2)cc1 (stereo not given)	1200 s
O=S(=O)(NC1CCCCC1)c1ccc(-c2nnc(C3CC3)o2)o1	940 s
Cc1ccc(S(=O)(=O)N2CCc3c(c(-c4nnc(-c5ccccc5F)o4)nn3C)C2)cc1Cl	1040 s
COc1ccc(S(=O)(=O)NCc2cccnc2-c2cccc(C)c2)cc1Cl	756 s
Cc1ccc(-n2ccc(=O)c(-c3nc(-c4ccc5c(c4)OCO5)no3)n2)cc1	893 s
O=C(C1CC(=O)N(c2ccc3c(c2)CCN3C(=O)C2CCC2)C1)N1CCCCC1 (stereo not given)	760 s
CN1C(=O)c2ccccc2Oc2ccc(C(=O)NCc3ccc(Cl)cc3)cc21	957 s
CN(C)c1ccc(CNc2ccc(-c3nc(-c4cccc(F)c4)no3)cn2)cc1	912 s
COc1ccc(NC2=NS(=O)(=O)C(c3ccccc3)=C2C)cc1OC	802 s
OC(COc1ccccc1)CN1CCN(c2ccccc2)CC1 (stereo not given)	724 s
O=C(COc1ccccc1-c1nnc(-c2ccccc2)o1)NCc1ccc2c(c1)OCO2	1030 s
COc1ccc(-c2noc(-c3nc(Cc4ccc(F)cc4)no3)n2)cc1	1170 s
Cc1ccc(NC2CC(=O)N(c3cccc([N+](=O)[O-])c3)C2=O)cc1 (stereo not given)	882 s
Cc1ccc(-n2nc(N3CCN(C(=O)Nc4ccc(F)cc4F)CC3)ccc2=O)cc1	781 s
CCn1cc(S(=O)(=O)N2CC3(CCCCC3)CC2COc2ccc(OC)cc2)cn1 (stereo not given)	1090 s

The next lines start with the values.

RP-LC retention time	Structure (SMILES)
691 s	CC(=O)Nc1ccc(SCCCC(=O)Nc2nc3ccccc3s2)nn1
777 s	c1cc(-c2noc(-c3cccnc3)n2)cc(-c2ccn[nH]2)c1
786 s	Cc1cc(C)n(-c2ccnc(N3CCC(C(=O)NC4CCCC4)CC3)n2)n1
572 s	CCc1ccc(C(O)CN2CCN(c3ccccn3)CC2)cc1 (stereo not given)
1250 s	COc1ccc(-c2noc(C3(NC(=O)c4cccc(Cl)c4)CCCCC3)n2)cc1
590 s	Cc1noc(C)c1CN1CCC(NC(=O)c2ccc3c(c2)OCO3)CC1
781 s	Cc1nnc(NC(=O)CN2CCCCC2c2nc(C(C)C)no2)s1 (stereo not given)
534 s	CCC(=O)N1CCN(c2nc3c(s2)CC(C(=O)NCC(C)C)CC3)CC1 (stereo not given)
648 s	CC(=O)N1CCC(C(=O)Nc2cc(-c3nnc(C)o3)sc2C)CC1
980 s	CCn1c(=O)sc2cc(S(=O)(=O)N3CCC(C(=O)Nc4ccc(Cl)cc4C)CC3)ccc21
571 s	O=c1ccc(-c2ccncc2)nn1CCCNS(=O)(=O)c1cccs1
720 s	Cc1nn2c(N3CCN(c4ccccn4)CC3)c3c(nc2c1-c1ccccc1)CCC3
796 s	CCc1nc(-c2csc(S(=O)(=O)N3CCC(C(=O)N4CCOCC4)CC3)c2)no1
684 s	O=C(Cc1nnc(-c2ccccc2)o1)NCC1CC1
721 s	COc1ccc(C(=O)Nc2cc(-c3cccnc3)no2)cc1
640 s	CC(C)CNC(=O)C1CCN(c2nc3ccc(-c4cccnc4)nc3s2)CC1
633 s	COCCNC(=O)c1ccc(-n2nc(C)c3c2CCCC3=O)cc1
778 s	Cc1ccc(NC(=O)c2nc3ccccc3[nH]c2=O)c(C)c1
793 s	COc1cccc(CCC(=O)N2C[C@@H]3C[C@H](NC(=O)c4ccccc4)[C@H]2C3)c1
911 s	CCCn1c(-c2cccc(C(=O)NCc3ccccc3C(F)(F)F)c2)nc2cccnc21
1110 s	Cc1sc(NC(=O)Cn2c(=O)sc3ccccc32)nc1-c1ccc(Cl)cc1
608 s	Cn1c(CC2CCN(C(=O)COc3cccc(Cl)c3)C2)nc2cccnc21 (stereo not given)
613 s	Cn1c(=O)c(C(=O)NC2CC2)nc2cccnc21

RP-LC retention time	Structure (SMILES)
1350 s	CCOC(=O)c1c(C)oc2ncnc(NCCN3CCCc4ccccc43)c12
742 s	COc1ccc(-c2nc(N3CCCC3)c3ccccc3n2)cc1
756 s	Cc1ccc(S(=O)(=O)N2CCC(n3cnnc3C(C)C)CC2)cc1F
696 s	O=C(Nc1ccc(F)cc1F)C1CCN(C(=O)c2cccn2-c2cccnc2)CC1
698 s	O=C(c1ccccc1F)N1CCCCC1c1nncn1CC1CC1 (stereo not given)
881 s	O=C(NCc1ccccc1Cl)C1c2ccccc2CCN1C(=O)C1CC1 (stereo not given)
795 s	CCOC(=O)c1[nH]c(C)c(CCC(=O)N2CCC(C(=O)NCCc3ccccc3)CC2)c1C
634 s	CN(C)c1nccnc1OC1CCN(C(=O)c2ccnn2C)C1 (stereo not given)
973 s	CSc1cccc(NC(=O)c2cn(C)nc2S(=O)(=O)N2CCSCC2)c1
1050 s	COC(=O)c1ccc(C2Nc3ccc(C)cc3[C@H]3OCC[C@@H]23)cc1 (stereo not given in full)
746 s	Cc1onc(-c2ccccc2Cl)c1C(=O)NC1CC1
744 s	Cc1ccc(-n2nc3c(=O)n(C(C)C(=O)NC4CC4)nc(C)c3c2C)cc1 (stereo not given)
576 s	COc1cc(OC)cc(C(=O)N2CCN(c3cc(C(C)C)n4cnnc4n3)CC2)c1
1170 s	Cc1ccc(Cn2c(=O)c(N3CCCC(C(=O)NCc4cccs4)C3)nc3ccccc32)cc1 (stereo not given)
713 s	COc1ccc(-c2cc(C(=O)N3CCC(NC(=O)C4CCCC4)CC3)[nH]n2)cc1
804 s	Cc1ccccc1OCc1nc(C2CN(C(=O)NC(C)C)C2)no1
921 s	CSc1ccc(CNC(=O)C2CCCN(C(=O)c3cc(C)cc(C)c3)C2)cc1 (stereo not given)
740 s	O=C(NCCn1c(C(F)(F)F)nc2cccnc21)c1ccc(Br)o1
656 s	Cc1cnc(C2CN(S(=O)(=O)c3cccc(F)c3)C2)n1CC1CC1
836 s	Cc1ccc(NC(=O)Cn2nc(N3CCOCC3)c3ccccc3c2=O)cc1F
644 s	COc1nn(C)cc1C(=O)NCc1cc(-c2ccco2)on1
936 s	COC(=O)c1cccc(C(=O)Nc2cc(C)ccc2C)n1
